In general, pIC50 refers to the IC50 on a negative log10 scale, so that one unit is a factor of ten. The term IC50 denotes the concentration at which inhibition is half-maximal.

In data set [1] the test system is Plasmodium falciparum. The data set is described as follows: Antiplasmodial activity against multidrug resistant asexual blood stage Plasmodium falciparum Dd2 assessed as inhibition of parasite growth incubated for […] by HRP2-ELISA. The format is functional, organism-based. (ELISA stands for enzyme-linked immunosorbent assay.)
The nature of data set [2]: Selectivity index, ratio of IC50 for cytotoxicity against human HepG2 cells to IC50 for antiplasmodial activity against chloroquine-sensitive asexual blood stage Plasmodium falciparum 3D7. The data set is classed as toxicity, cell-based. As to conditions: read-out: Ratio IC50.
Data set [3] is described as follows: Cytotoxicity against human HepG2 cells assessed as inhibition of cell growth incubated for 24 hrs by neutral red dye based analysis. The format is toxicity.
The subject of data set [4] is Plasmodium falciparum. In words: Antiplasmodial activity against chloroquine-sensitive asexual blood stage Plasmodium falciparum 3D7 assessed as inhibition of parasite growth incubated for […] by HRP2-ELISA. The format is functional, organism-based.
The test system of data set [5] is Plasmodium berghei. The data set is described as follows: Antimalarial activity against Plasmodium berghei infected in mouse assessed as reduction in parasitemia in blood at 10 mg/kg, po administered for 4 times starting from 4 to 72 hrs and measured after 96 hrs post infection (reference value: 0%). The data set is classed as functional. Set-up: scale not given: the % may be the effect or the level left.

Data set [6] relates to Plasmodium berghei. In words: Antimalarial activity against Plasmodium berghei infected in mouse assessed as reduction in parasitemia in blood at 30 mg/kg, po administered for 4 times starting from 4 to 72 hrs and measured after 96 hrs post infection (reference value: 0%). The data set is classed as functional. Further details: scale not given: the % may be the effect or the level left.

Data set [7] concerns Plasmodium berghei. In words: Antimalarial activity against Plasmodium berghei infected in mouse assessed as mean survival days at 50 mg/kg, po administered for 4 times starting from 4 to 72 hrs and monitered for 30 days (reference value: 4 days). The data set is classed as functional. As to conditions: time 30 day.
In data set [8] the test system is Plasmodium falciparum. The data set is described as follows: Antiplasmodial activity against multidrug resistant asexual blood stage Plasmodium falciparum Dd2-B2 assessed as inhibition of parasite growth incubated for 72 hrs by SYBR green-based assay. The conditions noted are these: Dd2-B2, 72 h. The format is functional, organism-based.
Data set [9] deals with Plasmodium falciparum. The data set is described as follows: Antiplasmodial activity against hyper mutating Plasmodium falciparum Dd2 harboring proofreading-deficient DNA polymerase delta assessed as inhibition of parasite growth incubated for 72 hrs by SYBR green-based assay. The format is functional, organism-based. As to conditions: Dd2, 72 h.
The subject of data set [10] is Plasmodium berghei. The data set is described as follows: Antimalarial activity against Plasmodium berghei infected in mouse assessed as reduction in parasitemia in blood at 50 mg/kg, po administered for 4 times starting from 4 to 72 hrs and measured after 96 hrs post infection (reference value: 0%). The data set is classed as functional. Set-up: scale not given: the % may be the effect or the level left.

The test system of data set [11] is Plasmodium berghei. The data set is described as follows: Antimalarial activity against Plasmodium berghei infected in mouse assessed as mean survival days at 30 mg/kg, po administered for 4 times starting from 4 to 72 hrs and monitered for 30 days (reference value: 4 days). The format is functional. The conditions noted are these: time 30 day.
The nature of data set [12]: Cytotoxicity against human HeLa cells assessed as inhibition of cell growth incubated for 24 hrs by neutral red dye based analysis. The data set is classed as toxicity.
Data set [13] has as its system Plasmodium falciparum. In words: Inhibition of hemozoin formation in sorbitol-synchronized early ring stage plasmodium falciparum NF54 trophozoites assessed as increase in free heme level at 1 to 2.5 times IC50 incubated for 28 hrs by flow cytometry analysis. The data set is classed as functional.
In data set [14] the test system is Plasmodium falciparum. In words: Inhibition of hemozoin formation in sorbitol-synchronized early ring stage plasmodium falciparum NF54 trophozoites assessed as reduction in hemozoin level at 1 to 2.5 times IC50 incubated for 28 hrs by flow cytometry analysis. The data set is classed as functional. A general note: In flow cytometry, cells or beads pass a laser one at a time.

Data set [15] can be described thus: Cytotoxicity against HEK293 cells assessed as inhibition of cell growth incubated for 24 hrs by neutral red dye based analysis. The conditions noted are these: human. The data set is classed as toxicity.
A short description of data set [16]: Selectivity index, ratio of IC50 for cytotoxicity against human HeLa cells to IC50 for antiplasmodial activity against chloroquine-sensitive asexual blood stage Plasmodium falciparum 3D7. The data set is classed as toxicity, cell-based. The conditions noted are these: read-out: Ratio IC50.
Data set [17] can be described thus: Selectivity index, ratio of IC50 for cytotoxicity against HEK293 cells to IC50 for antiplasmodial activity against chloroquine-sensitive asexual blood stage Plasmodium falciparum 3D7. The format is toxicity, cell-based. The conditions noted are these: human, read-out: Ratio IC50.

Structures are written as SMILES. pIC50: −log10 of the molar value. Active and inactive are the calls of the source. The calls are words filed in the database; no cut-off is given here.

For the compound `N/C(CC(O)c1cc2ccccc2c2ccccc12)=N\c1ccc(F)cc1` (centres undefined), the pIC50 in the data set with Plasmodium falciparum [1] was 7.40; in the data set with Plasmodium falciparum [4] it was 7.57. Besides, the selectivity ratio in data set [2] is 344. Also, the IC50 at 24 h in data set [3] came to 9.3 µM.

On to `CC(C)(C)c1ccc(C(O)C/C(N)=N/c2ccc(F)cc2)cc1` (centres undefined), for which the pIC50 in the data set with Plasmodium falciparum [1] was 6.03; with Plasmodium falciparum [4], 5.82. The selectivity ratio in data set [2] was found to be 38. Besides, the IC50 at 24 h in [3] was 57.5 µM.

As to `N/C(CC(O)c1cc2c(F)cc(F)cc2c2cc(C(F)(F)F)ccc12)=N\N=C\c1ccc(F)cc1` (centres undefined), the Activity in the data set with Plasmodium berghei [5] came to 99.5%; in the data set with Plasmodium berghei [6], 99.4%; in the data set with Plasmodium berghei [10] it was 99.9%. The figures for the MSD with Plasmodium berghei [7] and in the data set with Plasmodium berghei [11] were 22 days and 25 days, respectively. Further, the figures for the pIC50 in the data set with Plasmodium falciparum [8] and with Plasmodium falciparum [9] were 7.61 and 7.57, respectively.

As to `C[C@H]1[C@H](OC(=O)CCC(=O)O)O[C@@H]2O[C@@]3(C)CC[C@H]4[C@H](C)CC[C@@H]1[C@@]24OO3` [ARTESUNATE], the Activity in the data set on Plasmodium berghei [6] amounted to 99%. Besides, the MSD in the data set with Plasmodium berghei [11] amounted to 9 days.

As for `N/C(CC(O)c1cc2ccccc2c2ccccc12)=N\CCc1ccccn1` (centres undefined), the pIC50 in the data set with Plasmodium falciparum [1] is 4.64; with Plasmodium falciparum [4], 4.82. Further, in [2], the selectivity ratio was determined as 3. The IC50 at 24 h in data set [3] came to 50.5 µM.

Turning to `N=C(CC(O)c1cc2ccccc2c2ccccc12)NCc1ccccc1` (centres undefined), the pIC50 with Plasmodium falciparum [1] is 5.82; in the data set on Plasmodium falciparum [4], 6.32. Besides, the selectivity ratio in data set [2] was 27. The IC50 at 24 h in data set [3] was found to be 13 µM.

As for `N=C(CC(O)c1cc2ccccc2c2ccccc12)NCc1ccc(F)cc1` (centres undefined), the pIC50 in the data set on Plasmodium falciparum [1] is 4.70; in the data set with Plasmodium falciparum [4] it was 6.01. Moreover, in data set [2], the selectivity ratio was found to be 9. In data set [3], the IC50 at 24 h was 9.2 µM.

`COc1ccc(CC/N=C(\N)CC(O)c2cc3ccccc3c3ccccc23)cc1` (centres undefined): the pIC50 with Plasmodium falciparum [1] is 6.15; with Plasmodium falciparum [4] it was 7.15. Besides, in data set [2], the selectivity ratio amounted to 129. Also, the IC50 at 24 h in data set [3] was 9 µM.

For `CC(C)(C)c1ccc(/N=C(\N)CC(O)c2ccc(C(C)(C)C)cc2)cc1` (centres undefined), the pIC50 in the data set on Plasmodium falciparum [1] and in the data set on Plasmodium falciparum [4] was 7.30 each time. Also, the selectivity ratio in data set [2] was 236. The IC50 at 24 h in data set [3] was determined as 11.8 µM.

Consider `N/C(CC(O)c1cc2c(Cl)cc(Cl)cc2c2cc(C(F)(F)F)ccc12)=N\N1CCCCC1` (centres undefined), for which, in data set [2], the selectivity ratio stood at 1190. The IC50 at 24 h in data set [3] is 8.3 µM.

Consider `CC(C)(C)c1cc(C(O)C/C(N)=N/c2ccc(F)cc2)cc(C(C)(C)C)c1` (centres undefined), for which the pIC50 with Plasmodium falciparum [1] is 6.46; in the data set on Plasmodium falciparum [4], 6.48.

Regarding `N=C(CC(O)c1cc2ccccc2c2ccccc12)NCCc1ccccc1` (centres undefined), the pIC50 in the data set on Plasmodium falciparum [1] was 5.00; in the data set on Plasmodium falciparum [4] it was 6.14. Besides, the selectivity ratio in data set [2] was determined as 8. The IC50 at 24 h in data set [3] is 5.7 µM.

In the case of `COc1ccc(/N=C(\N)CC(O)c2ccc(C(C)(C)C)cc2)cc1` (centres undefined), the pIC50 with Plasmodium falciparum [1] was 5.62; in the data set with Plasmodium falciparum [4], 5.47. Besides, the selectivity ratio in [2] was 17. The concentration for half-maximal inhibition (IC50) at 24 h in [3] was 56.2 µM.

In the case of `N=C(CC(O)c1cc2ccccc2c2ccccc12)NCCc1ccc(F)cc1` (centres undefined), the pIC50 with Plasmodium falciparum [1] was 5.96; with Plasmodium falciparum [4], 6.48. Further, in data set [2], the selectivity ratio was found to be 16. In [3], the IC50 at 24 h was found to be 5 µM.

On to `N/C(CC(O)c1cc2c(F)cc(F)cc2c2cc(C(F)(F)F)ccc12)=N\CCc1ccc(F)cc1` (centres undefined), for which the results for the pIC50 with Plasmodium falciparum [1] and in the data set on Plasmodium falciparum [4] were 6.92 and 6.62, respectively.

Consider `CCN(CC)Cc1cc(/N=C(\N)CC(O)c2cc3ccccc3c3ccccc23)ccc1O` (centres undefined), for which the figures for the pIC50 with Plasmodium falciparum [1] and in the data set on Plasmodium falciparum [4] were 6.19 and 7.30, respectively. Moreover, in data set [2], the selectivity ratio is 304. Besides, in data set [3], the IC50 at 24 h worked out at 15.2 µM.

As for `COc1ccc2nccc(C(O)C/C(N)=N/c3ccc(F)cc3)c2c1` (centres undefined), the pIC50 was 5.29 with Plasmodium falciparum [1] and 5.68 in the data set on Plasmodium falciparum [4]. The selectivity ratio in data set [2] worked out at 86. Also, in [3], the IC50 at 24 h is 180 µM.

For the compound `N/C(CC(O)c1cc2c(Cl)cc(Cl)cc2c2cc(C(F)(F)F)ccc12)=N\OCc1ccc(F)cc1` (centres undefined), in data set [2], the selectivity ratio turned out to be 122. Besides, the IC50 at 24 h in [3] came to 34.1 µM.

For `CCN(CC)CCCC(C)Nc1ccnc2cc(Cl)ccc12` (centres undefined) [CHLOROQUINE], the Activity with Plasmodium berghei [6] worked out at 99.9%. Also, the IC50 at 24 h in data set [12] and in data set [15] was more than 1000 µM each time. In addition, the inhibition result in the data set with Plasmodium falciparum [13] and with Plasmodium falciparum [14] was “Active” throughout. Besides, in the data set with Plasmodium berghei [11], the MSD was found to be 21 days.

On to `Cl.N/C(CC(O)c1c2ccccc2cc2ccccc12)=N\c1ccc(F)cc1` (centres undefined), for which the selectivity ratio in data set [16] stood at 25400; in data set [2], 1500; in data set [17], 15700. In addition, the pIC50 in the data set on Plasmodium falciparum [1] is 8.05; in the data set on Plasmodium falciparum [4] it was 8.30. For the same compound, the results for the IC50 at 24 h in data set [12], in data set [3] and in data set [15] were 127 µM, 7.5 µM and 78.3 µM, respectively. The Activity in the data set with Plasmodium berghei [10] turned out to be 40%.

For the compound `N=C(CC(O)c1cc2c(Cl)cc(Cl)cc2c2cc(C(F)(F)F)ccc12)NCCc1ccc(F)cc1` (centres undefined), the pIC50 with Plasmodium falciparum [1] was 6.64; in the data set with Plasmodium falciparum [4] it was 6.46. Besides, in data set [2], the selectivity ratio was 21. Moreover, the IC50 at 24 h in data set [3] came out at 7.3 µM.

With `CCCCN(CCCC)CC(O)c1cc(Cl)cc2c1-c1ccc(Cl)cc1/C2=C/c1ccc(Cl)cc1` (centres undefined) [LUMEFANTRINE], in the data set on Plasmodium berghei [6], the Activity was 99.8%. The pIC50 with Plasmodium falciparum [1] is 8.70; in the data set with Plasmodium falciparum [4], 8.22. Also, the selectivity ratio in data set [2] came out at 20. The IC50 at 24 h in data set [3] was more than 20 µM. Further, the MSD with Plasmodium berghei [11] was more than 30 days.

On to `N/C(CC(O)c1ccnc2ccccc12)=N\c1ccc(F)cc1` (centres undefined), for which the results for the pIC50 in the data set with Plasmodium falciparum [1] and with Plasmodium falciparum [4] were 5.25 and 5.47, respectively. In addition, the selectivity ratio in data set [2] was more than 200. Besides, the IC50 at 24 h in data set [3] is more than 200 µM.
